Experimental data reported in article PMC7235764, “Novel Azoles as Antiparasitic Remedies against Brain-Eating Amoebae” (Antibiotics, 2020).

Tests used:
B. mandrillaris [1] = test: Amoebicidal assay (trypan blue exclusion) against B. mandrillaris; assay type: cell-based, Balamuthia mandrillaris; conditions: 50 μM, 24 h; for amoebicidal activity, mean (M): M with SD, azole alone (before conjugation); for percentage cell death (amoebicidal activity): negative control considered as 0%
Protocol: (§1) N. fowleri cells (ATCC 30174) and B. mandrillaris cells (ATCC 50209) were acquired from American Type Culture Collection and cultivated in RPMI-1640 media supplemented with 1% antibiotics with HeLa cell monolayers used as a feeder layer at 37 °C and 5% CO2 as previously cultured.
(§2) Amoebicidal assays were accomplished as formerly explained. Briefly, 5 × 10^5 amoebae cells were kept for 24 h at 37 °C and 5% CO2 with 50 μM azole compounds. While positive controls used were amphotericin B and ketoconazole, RPMI-1640 alone was used as negative control and respective solvents were used as solvent control. Trypan blue exclusion assay, which consists of using 0.1% trypan blue to differentiate between live (unstained) and dead (stained) cells and count the cells using a haemocytometer.

N. fowleri [2] = test: Amoebistatic assay (growth inhibition on HeLa feeder monolayers) against N. fowleri; assay type: cell-based, Naegleria fowleri; conditions: 24 h; for amoebistatic activity, mean (M): 50 μM, M with SD; for inhibition at 50 µM: Naegleria fowleri, HeLa, compared to untreated cells
Protocol: (§3) N. fowleri cells (ATCC 30174) and B. mandrillaris cells (ATCC 50209) were acquired from American Type Culture Collection and cultivated in RPMI-1640 media supplemented with 1% antibiotics with HeLa cell monolayers used as a feeder layer at 37 °C and 5% CO2 as previously cultured. 5 × 10^5 amoebae cells were kept for 24 h at 37 °C and 5% CO2 with 50 μM azole compounds on HeLa monolayers as feeder cells. While positive controls used were amphotericin B and ketoconazole, RPMI-1640 alone was used as negative control and respective solvents were used as solvent control. Trypan blue exclusion assay which consists of using 0.1% trypan blue to distinguish between live (unstained) and dead (stained) cells and count the cells using a haemocytometer.

HaCaT cells = test: Cytotoxicity assay (LDH release) against human cells; assay type: cell-based; conditions: 50 μM, 24 h, 37 °C
Protocol: Figure 3 Cytotoxic effects of azoles against host cells. Briefly, 50 μM azoles were incubated with HaCaT cells monolayers for 24 h at 37 °C in a 5% CO2 incubator as described in Materials and Methods. […] The data are presented as the mean ± standard error. Cytotoxic effects of the drugs were determined as previously described. 50 μM azole compounds was incubated on HeLa cells for 24 h at 37 °C and 5% CO2 in RPMI-1640 media. The level of lactate dehydrogenase (LDH) enzyme in the RPMI-media which indicates cytotoxic effects of drugs was determined by means of a cytotoxicity detection kit (Roche Applied Science). The percentage cytotoxicity was calculated: [(Absorbance of sample - Absorbance of untreated cells)/(Absorbance for total LDH release - Absorbance of untreated cells)] × 100 = percentage cytotoxicity.

B. mandrillaris [3] = test: Amoebistatic assay (growth inhibition on HeLa feeder monolayers) against B. mandrillaris; assay type: cell-based, Balamuthia mandrillaris; conditions: 24 h; for amoebistatic activity, mean (M): 50 μM, M with SD; for inhibition at 50 µM: Balamuthia mandrillaris, HeLa, untreated amoebae considered as 0%
Protocol: as §3

N. fowleri [4] = test: Amoebicidal assay (trypan blue exclusion) against N. fowleri; assay type: cell-based, Naegleria fowleri; conditions: 50 μM, 24 h; for amoebicidal activity, mean (M): M with SD, azole alone (before conjugation); for percentage cell death (amoebicidal activity): negative control considered as 0%
Protocol: as §1, §2

Compound	amoebicidal activity, mean (M) (B. mandrillaris [1])	percentage cell death (amoebicidal activity) (B. mandrillaris [1])	amoebistatic activity, mean (M) (N. fowleri [2])	inhibition at 50 µM (N. fowleri [2])	cytotoxicity (HaCaT cells)	amoebistatic activity, mean (M) (B. mandrillaris [3])	inhibition at 50 µM (B. mandrillaris [3])	amoebicidal activity, mean (M) (N. fowleri [4])	percentage cell death (amoebicidal activity) (N. fowleri [4])
CC1(C)C/C(=N\NC(N)=S)c2cnn(-c3ccccc3)c2C1 [A4, (E)-2-(6,6-Dimethyl-1-phenyl-1,5,6,7-tetrahydro-4H-indazol-4-4ylidene)hydrazine-1-carbothioamide]	1.65%	limited amoebicidal activity	54.70%	55%	5%	64.98%	65%	72.34%	72%
COc1cc(-c2nc3ccccc3[nH]2)cc(Br)c1OC [A1, 2-[3-Bromo-4,5-bis(methoxy)phenyl]-1H-benzimidazole]	35.62%	36%		20%	41%	52.63%	53%	0%	did not cause amoebicidal activity
Cc1ccc(-c2nc3ccccc3[nH]2)o1 [A2]		limited amoebicidal activity	64.31%	64%	no cytotoxic activities	70.33%	70%		31%
c1ccc(-c2nnn[nH]2)cc1 [A6, 5-Phenyl-1H-tetrazole]	30.58%	31%	66.53%	67%	no cytotoxic activities	70.35%	70%		45%
Clc1cccc(Cc2nnn[nH]2)c1 [A5, 5-(3-Chlorobenzyl)-1H-tetrazole]	64.54%	65%	62.74%	63%	11%	51.24%	51%	66.19%	66%
CC1(C)C/C(=N\NC(=S)Nc2ccccc2Cl)c2cnn(-c3ccccc3)c2C1 [A3, (E)-N-(2-Chlorophenyl)-2-(6,6-dimethyl-1-phenyl-1,5,6,7-tetrahydro-4H-indazol-4-4ylidene)hydrazine-1-carbothioamide]	23.86%	24%	75.12%	75%	19%	55.62%	56%		39%
